Hepatotoxicity data for 65 compounds are collected here from ChEMBL document CHEMBL1697692, “Developing structure-activity relationships for the prediction of hepatotoxicity” (Chem Res Toxicol, 2010).

Structures can show the parent of a compound that is named as a salt.

The test system of the data set is Hepatotoxicity. Nature of the data set: Literature-mined public compounds from Greene et al multi-species hepatotoxicity modelling dataset.
As to `CCOc1nc2cccc(C(=O)O)c2n1Cc1ccc(-c2ccccc2-c2nnn[nH]2)cc1`, the Hepatotoxicity entry is given as “WE: Weak evidence (<10 case reports) of human hepatotoxicity”.

`CCCc1nc2c(C)cc(-c3nc4ccccc4n3C)cc2n1Cc1ccc(-c2ccccc2C(=O)O)cc1`: the Hepatotoxicity result is given as “WE: Weak evidence (<10 case reports) of human hepatotoxicity”.

On to `CCCCC(=O)N(Cc1ccc(-c2ccccc2-c2nnn[nH]2)cc1)[C@H](C(=O)O)C(C)C`, for which the Hepatotoxicity result was “WE: Weak evidence (<10 case reports) of human hepatotoxicity”.

For `CC(C)(C)NCC(O)c1cc(O)cc(O)c1.O=S(=O)(O)O` (stereo not given), the Hepatotoxicity result was “HH: Evidence of human hepatotoxicity”.

Turning to `COc1cccc(OC)c1C(=O)N[C@@H]1C(=O)N2[C@@H]1SC(C)(C)[C@@H]2C(=O)[O-].[Na+]`, the Hepatotoxicity entry is listed as “HH: Evidence of human hepatotoxicity”.

For `CN[C@@H]1[C@H](O)[C@H](NC)[C@H]2O[C@@]3(O)C(=O)C[C@@H](C)O[C@H]3O[C@@H]2[C@H]1O.Cl`, the Hepatotoxicity entry is listed as “HH: Evidence of human hepatotoxicity”.

`CCO.C[C@H]1c2cccc(O)c2C(=O)C2=C(O)[C@]3(O)C(=O)C(C(N)=O)=C(O)[C@@H](N(C)C)[C@@H]3[C@@H](O)[C@@H]21.Cl.O`: the Hepatotoxicity entry is recorded as “HH: Evidence of human hepatotoxicity”.

For `Cl.NCCNCCNCCN`, the Hepatotoxicity result is given as “HH: Evidence of human hepatotoxicity”.

In the case of `CCN(CC)CCNC(=O)c1cc(Cl)c(N)cc1OC.Cl`, the Hepatotoxicity entry is “HH: Evidence of human hepatotoxicity”.

For the compound `CNS(=O)(=O)Cc1ccc2[nH]cc(CCN(C)C)c2c1`, the Hepatotoxicity entry was “NE: No evidence of hepatotoxicity in any species”.

For `CN(C)CCN(Cc1cccs1)c1ccccn1`, the Hepatotoxicity entry is “HH: Evidence of human hepatotoxicity”.

As to `Cl.Cl.OCCN1CCN(CC/C=C2/c3ccccc3Sc3ccc(C(F)(F)F)cc32)CC1`, the Hepatotoxicity result is “NE: No evidence of hepatotoxicity in any species”.

`CCCCCOC(=O)c1ccccc1C(=O)OCCCCC`: the Hepatotoxicity result is given as “AH: Evidence for animal hepatotoxicity but not tested in humans”.

As for `CC1=C(CC(=O)O)c2cc(F)ccc2/C1=C\c1ccc([S+](C)[O-])cc1` (stereo not given), the Hepatotoxicity entry is given as “HH: Evidence of human hepatotoxicity”.

Take `CCOC(=O)[C@H](CCc1ccccc1)N[C@@H](C)C(=O)N1Cc2ccccc2C[C@H]1C(=O)O`: the Hepatotoxicity entry was “HH: Evidence of human hepatotoxicity”.

Turning to `Cl.Nc1cc(Cl)cc(Cl)c1`, the Hepatotoxicity result was “NE: No evidence of hepatotoxicity in any species”.

On to `NC(CS/C(Cl)=C/Cl)C(=O)O` (stereo not given), for which the Hepatotoxicity result was “AH: Evidence for animal hepatotoxicity but not tested in humans”.

Regarding `S=C=Nc1ccc2ccccc2c1`, the Hepatotoxicity result was “WE: Weak evidence (<10 case reports) of human hepatotoxicity”.

Take `C=CC(O)CC#N` (stereo not given): the Hepatotoxicity result is listed as “NE: No evidence of hepatotoxicity in any species”.

As for `Nc1cc(Cl)c(O)c(Cl)c1.Nc1ccc(O)cc1`, the Hepatotoxicity entry was “AH: Evidence for animal hepatotoxicity but not tested in humans”.

`CO/N=C(/C(=O)N[C@@H]1C(=O)N2C(C(=O)[O-])=C(CSc3nc(=O)c(O)nn3C)CS[C@H]12)c1csc(N)n1.[Na+]`: the Hepatotoxicity result was “HH: Evidence of human hepatotoxicity”.

`O=C1NC(=O)C(O)(O)C(=O)N1`: the Hepatotoxicity result is “NE: No evidence of hepatotoxicity in any species”.

As to `Oc1ccccc1Br`, the Hepatotoxicity entry is “AH: Evidence for animal hepatotoxicity but not tested in humans”.

Take `O=C(O)COc1ccc(C(=O)c2cccs2)c(Cl)c1Cl`: the Hepatotoxicity result is on record as “HH: Evidence of human hepatotoxicity”.

For `CCN(CC)Cc1cc(Nc2ccnc3cc(Cl)ccc23)ccc1O.Cl.Cl.Cl`, the Hepatotoxicity result is “HH: Evidence of human hepatotoxicity”.

Consider `N#CC(C#N)=NNc1ccc(OC(F)(F)F)cc1`, for which the Hepatotoxicity result is reported as “AH: Evidence for animal hepatotoxicity but not tested in humans”.

Turning to `O=C1NCN(c2ccccc2)C12CCN(CCCC(c1ccc(F)cc1)c1ccc(F)cc1)CC2`, the Hepatotoxicity result is reported as “HH: Evidence of human hepatotoxicity”.

As for `C[n+]1ccc(-c2cc[n+](C)cc2)cc1`, the Hepatotoxicity result is reported as “AH: Evidence for animal hepatotoxicity but not tested in humans”.

In the case of `Nc1ccc(Cc2ccc(N)cc2)cc1`, the Hepatotoxicity result is listed as “AH: Evidence for animal hepatotoxicity but not tested in humans”.

As for `C=C1CC[C@@]2(O)[C@H]3Cc4ccc(O)c5c4[C@@]2(CCN3CC2CC2)[C@H]1O5`, the Hepatotoxicity result is reported as “NE: No evidence of hepatotoxicity in any species”.

Consider `CCSCC[C@H](N)C(=O)O` (stereo in doubt; form 1) [ETHIONINE], for which the Hepatotoxicity result is reported as “HH: Evidence of human hepatotoxicity”.

`Cl[C@H]1[C@H](Cl)[C@@H](Cl)[C@@H](Cl)[C@H](Cl)[C@H]1Cl` (stereo in doubt; form 1) [LINDANE]: the Hepatotoxicity entry was “NE: No evidence of hepatotoxicity in any species”.

In the case of `C[C@H](CCC(=O)O)[C@H]1CC[C@H]2[C@@H]3[C@@H](O)C[C@@H]4C[C@H](O)CC[C@]4(C)[C@H]3CC[C@]12C` (stereo in doubt; form 1) [URSODIOL], the Hepatotoxicity entry was “HH: Evidence of human hepatotoxicity”.

Consider `CCSCC[C@H](N)C(=O)O` (stereo in doubt; form 2) [ETHIONINE], for which the Hepatotoxicity entry is reported as “AH: Evidence for animal hepatotoxicity but not tested in humans”.

Take `Cl[C@H]1[C@H](Cl)[C@@H](Cl)[C@@H](Cl)[C@H](Cl)[C@H]1Cl` (stereo in doubt; form 2) [LINDANE]: the Hepatotoxicity entry was “HH: Evidence of human hepatotoxicity”.

On to `C[C@H](CCC(=O)O)[C@H]1CC[C@H]2[C@@H]3[C@@H](O)C[C@@H]4C[C@H](O)CC[C@]4(C)[C@H]3CC[C@]12C` (stereo in doubt; form 2) [URSODIOL], for which the Hepatotoxicity result is recorded as “WE: Weak evidence (<10 case reports) of human hepatotoxicity”.

Take `ClCCCl` [1,2-DICHLOROETHANE]: the Hepatotoxicity result is given as “AH: Evidence for animal hepatotoxicity but not tested in humans”.

Consider `Clc1ccc(Cl)cc1` [1,4-DICHLOROBENZENE], for which the Hepatotoxicity result was “AH: Evidence for animal hepatotoxicity but not tested in humans”.

Regarding `S=C=Nc1cccc2ccccc12` [1-NAPHTHYLISOTHIOCYANATE], the Hepatotoxicity entry is reported as “HH: Evidence of human hepatotoxicity”.

`CCCC(C)(F)F` [2,2-DIFLUOROPENTANE]: the Hepatotoxicity result is “AH: Evidence for animal hepatotoxicity but not tested in humans”.

As to `Clc1cc2c(cc1Cl)Oc1cc(Cl)c(Cl)cc1O2` [2,3,7,8-TETRACHLORODIBENZO-P-DIOXIN], the Hepatotoxicity result is reported as “AH: Evidence for animal hepatotoxicity but not tested in humans”.

Turning to `O=[N+]([O-])c1ccc(O)c([N+](=O)[O-])c1` [2,4-DINITROPHENOL], the Hepatotoxicity result is listed as “AH: Evidence for animal hepatotoxicity but not tested in humans”.

As to `CC(=O)Nc1ccc2c(c1)Cc1ccccc1-2` [2-ACETYLAMINOFLUORENE], the Hepatotoxicity result is listed as “HH: Evidence of human hepatotoxicity”.

On to `Cc1ccc2cc3c(ccc4ccccc43)c3c2c1CC3` [3-METHYLCHOLANTHRENE], for which the Hepatotoxicity result is on record as “HH: Evidence of human hepatotoxicity”.

With `Nc1nc(NC2CC2)c2ncn([C@H]3C=C[C@@H](CO)C3)c2n1` [ABACAVIR], the Hepatotoxicity entry is on record as “HH: Evidence of human hepatotoxicity”.

`CC(=O)CC(c1ccc([N+](=O)[O-])cc1)c1c(O)c2ccccc2oc1=O` (stereo not given) [ACENOCOUMAROL]: the Hepatotoxicity entry is “HH: Evidence of human hepatotoxicity”.

In the case of `CC(=O)Nc1ccc(O)cc1` [ACETAMINOPHEN], the Hepatotoxicity result is on record as “HH: Evidence of human hepatotoxicity”.

For `CC(=O)Nc1nnc(S(N)(=O)=O)s1` [ACETAZOLAMIDE], the Hepatotoxicity result is reported as “HH: Evidence of human hepatotoxicity”.

Consider `CC(=O)c1ccc(S(=O)(=O)NC(=O)NC2CCCCC2)cc1` [ACETOHEXAMIDE], for which the Hepatotoxicity entry is on record as “HH: Evidence of human hepatotoxicity”.

As to `CC(=O)OCC[N+](C)(C)C.[Cl-]` [ACETYLCHOLINE CHLORIDE], the Hepatotoxicity entry was “NE: No evidence of hepatotoxicity in any species”.

Consider `CC(=O)N[C@@H](CS)C(=O)O` [ACETYLCYSTEINE], for which the Hepatotoxicity entry is “NE: No evidence of hepatotoxicity in any species”.

Turning to `COc1cc(C)c(/C=C/C(C)=C/C=C/C(C)=C/C(=O)O)c(C)c1C` [ACITRETIN], the Hepatotoxicity result was “HH: Evidence of human hepatotoxicity”.

With `N[C@H](C(=O)O)[C@@H]1CC(Cl)=NO1` [ACIVICIN], the Hepatotoxicity result was “NE: No evidence of hepatotoxicity in any species”.

Turning to `CC[C@@]1(O)C[C@H](O[C@H]2C[C@H](N(C)C)[C@H](O[C@H]3C[C@H](O)[C@H](O[C@H]4CCC(=O)[C@H](C)O4)[C@H](C)O3)[C@H](C)O2)c2c(cc3c(c2O)C(=O)c2c(O)cccc2C3=O)[C@H]1C(=O)OC.Cl` [ACLARUBICIN HYDROCHLORIDE], the Hepatotoxicity result is “WE: Weak evidence (<10 case reports) of human hepatotoxicity”.

As to `Nc1ncnc2c1ncn2[C@@H]1O[C@H](CO)[C@@H](O)[C@H]1O` [ADENOSINE], the Hepatotoxicity entry is recorded as “NE: No evidence of hepatotoxicity in any species”.

`COc1cc2c(c3oc(=O)c4c(c13)CCC4=O)[C@@H]1C=CO[C@@H]1O2` [AFLATOXIN]: the Hepatotoxicity result is recorded as “HH: Evidence of human hepatotoxicity”.

For the compound `CCCSc1ccc2nc(NC(=O)OC)[nH]c2c1` [ALBENDAZOLE], the Hepatotoxicity entry is reported as “HH: Evidence of human hepatotoxicity”.

For `Oc1ncnc2[nH]ncc12` [ALLOPURINOL], the Hepatotoxicity entry was “HH: Evidence of human hepatotoxicity”.

As to `C=CCO` [ALLYL ALCOHOL], the Hepatotoxicity entry is listed as “HH: Evidence of human hepatotoxicity”.

As to `C=CCOC=O` [ALLYL FORMATE], the Hepatotoxicity result is recorded as “HH: Evidence of human hepatotoxicity”.

As for `CCCN(CCC)C(=O)Cc1c(-c2ccc(Cl)cc2)nc2ccc(Cl)cn12` [ALPIDEM], the Hepatotoxicity entry is on record as “HH: Evidence of human hepatotoxicity”.

Regarding `Cl.NC12CC3CC(CC(C3)C1)C2` [AMANTADINE HYDROCHLORIDE], the Hepatotoxicity entry was “NE: No evidence of hepatotoxicity in any species”.

Consider `Cl.N=C(N)NC(=O)c1nc(Cl)c(N)nc1N.O.O` [AMILORIDE HYDROCHLORIDE], for which the Hepatotoxicity result is listed as “NE: No evidence of hepatotoxicity in any species”.

For the compound `Cl.O=C(O)CCCCCCNC1c2ccccc2CCc2ccccc21` [AMINEPTINE HYDROCHLORIDE], the Hepatotoxicity entry is on record as “HH: Evidence of human hepatotoxicity”.

As for `Nc1ccc(C(=O)[O-])cc1.[K+]` [AMINOBENZOATE POTASSIUM], the Hepatotoxicity entry was “NE: No evidence of hepatotoxicity in any species”.
